According to patent publication US7547444B1, “Methods for controlling fungi and bacteria” (priority 2003, dated 2009):

How the values were obtained:
Botrytis cinerea = assay: Plant relevant mold panel, microtiter plate growth inhibition (OD 405 nm), IC 90; assay type: cell-based; details: Botrytis cinerea (Vegetable); 18° C. for 7 days
[1] = system: Colletotrichum lagenarium; assay: as above; assay type: cell-based; details: Colletotrichum lagenarium (Mellons); 18° C. for 7 days
Pyrenophora teres = assay: as above; assay type: cell-based; details: Pyrenophora teres (Barley); 18° C. for 7 days
Rhizoctonia solani = assay: as above; assay type: cell-based; details: Rhizoctonia solani (Rice Sheath); 18° C. for 7 days
Septonia tritici = assay: as above; assay type: cell-based; details: Septonia tritici (Wheat Leaf); 18° C. for 7 days
Alternaria solani = Alternaria solani (Potato); 18° C. for 7 days
Method: (§1) A stock solution of the compound was prepared in DMSO at a concentration of 10,000 ppm a.i. Further dilutions were prepared with water. The test was conducted at the following concentrations: 125, 31, 8, 21, 0.5 and 0.125 ppm a.i. Spore suspensions of the fungi were prepared. The test was conducted in microtiter plates and for each fungus and each concentration, 3 wells were prepared. Incubation of the inoculated plates was carried out at 18° C. for 7 days. After this time, the optical density of the mycelium developed in each well was measured at 405 nm.

Cochliobolus mijabeanus = Cochliobolus mijabeanus (Corn); 18° C. for 7 days
Method: as §1

Fusarium culmorum = Fusarium culmorum (Wheat Head); 18° C. for 7 days
Method: as §1

Phytophthora infestans = Phytophthora infestans (Tomato); 18° C. for 7 days
Pyricularia oryzae = Pyricularia oryzae (Rice); 18° C. for 7 days
[2] = system: roundworms, threadworms, and whipworms; details: reported; cited from earlier work
Streptococcus pyogenes = details: in vitro, 24 hours at 35° C.
Streptococcus faecalis = details: in vitro, 24 hours at 35° C.
Streptococcus algalactia = details: in vitro, 24 hours at 35° C.
Staphylococcus aureus = details: in vitro, 24 hours at 35° C.
Bordella bronchiseptica = details: in vitro, 24 hours at 35° C.
Vibrio cholerae = details: in vitro, 24 hours at 35° C.
Pasturella multocida = details: in vitro, 24 hours at 35° C.
E. coli = details: in vitro, 24 hours at 35° C.
Pseudomonas aerugenosa = details: in vitro, 24 hours at 35° C.
Candida albicans = details: in vitro, 24 hours at 35 degrees C.
Candida tropicalis = details: in vitro, 24 hours at 35 degrees C.
Cryptococcus neoformans = details: in vitro, 24 hours at 35 degrees C.
Aspergillus fumigatus = details: in vitro, 24 hours at 35 degrees C.
Aspergillus flavus = details: in vitro, 24 hours at 35 degrees C.
Fusarium solani = details: in vitro, 24 hours at 35 degrees C.
[3] = system: Trichophyton mentagrophyt

CC[n+]1c(/C=C/c2ccc(N3CCCC3)cc2)cccc1/C=C/c1ccc(N2CCCC2)cc1.[I-] [Stilbazium iodide]
IC90 (Botrytis cinerea): 0.5 ppm a.i.
IC90 [1]: 31 ppm a.i.
IC90 (Pyrenophora teres): 31 ppm a.i.
IC90 (Rhizoctonia solani): 2 ppm a.i.
IC90 (Septonia tritici): 2 ppm a.i.
IC90 (Alternaria solani): >125 ppm a.i.
IC90 (Cochliobolus mijabeanus): >125 ppm a.i.
IC90 (Fusarium culmorum): >125 ppm a.i.
IC90 (Phytophthora infestans): 2 ppm a.i.
IC90 (Pyricularia oryzae): 8 ppm a.i.
anthelmintic effectiveness [2]: effective

Stilbazium Chloride [formula I]
MIC (Streptococcus pyogenes): 1.0 µg/mL
MIC (Streptococcus faecalis): 1.0 µg/mL
MIC (Streptococcus algalactia): 1.0 µg/mL
MIC (Staphylococcus aureus): 0.3 µg/mL
MIC (Bordella bronchiseptica): 1.0 µg/mL
MIC (Vibrio cholerae): 10.0 µg/mL
MIC (Pasturella multocida): 3.0 µg/mL
MIC (E. coli): >100 µg/mL
MIC (Pseudomonas aerugenosa): >100 µg/mL
MIC (Candida albicans): <0.006 µg/mL
MIC (Candida tropicalis): <0.4 µg/mL
MIC (Cryptococcus neoformans): <0.4 µg/mL
MIC (Saccharomyces cervisciae): <0.4 µg/mL
MIC (Aspergillus fumigatus): <0.006 µg/mL
MIC (Aspergillus flavus): 6.25 µg/mL
MIC (Fusarium solani): <0.4 µg/mL
MIC (Rhizopus arrihizus): 6.25 µg/mL
MIC (Microsporidium canis): 1.6 µg/mL
MIC (Microsporidium gypseum): 1.6 µg/mL
MIC (Trichophyton eguinium): 1.6 µg/mL
MIC [3]: 1.6 µg/mL
MIC (Trichophyton rubrum): 1.6 µg/mL
MIC (Epidermophyton floccsum): 1.6 µg/mL
